{"source": "patent US20140050810A1", "about": "“ANTI-OBESITY COMPOSITION COMPRISING LYCIUM CHINENSIS LEAF EXTRACT AND BETAINE AS ACTIVE INGREDIENT” (BIONUTRIGEN CO., LTD., priority 2012, published 2014)", "key": {"[1]": {"system": "high-fat diet-induced obesity models", "assay": "Subcutaneous fat and total fat in high-fat diet-induced obesity mice", "assay_type": "in vivo, C57BL/6 mice", "conditions": "JBB21 1, LWE 2, JBB21+LWE 1+2 g/kg", "protocol": "(§1) Betaine (JBB21), a Lycium chinensis hot water extract powder (LWE), or a mixture thereof (JBB21+LWE) was orally administered five times a week to high-fat diet-induced obesity models and their effects on obesity, hyperlipidemia and fatty liver were analyzed. JBB21 and LWE were purchased as white and brown powders, respectively, from Bionutrigen, and stored at room temperature before use in the experiment.\n(§2) C57BL/6, specific pathogen-free (SPF) mice (male, six weeks old, Division of Biomedical Research, Korea Research Institute of Bioscience and Biotechnology) were used as the test animals.\n(§3) For comparison, a negative control and an obese group (high fat diet, HFD) were allowed to freely eat a radiation-sterilized control diet (CD, 10% kcal, Research Diets) and a high fat diet (HFD, 60% Kcal, Research Diets, supplied by Central Lab. Animal), respectively, during the administration of JBB21, LWE, or JBB21+LWE.\n(§4) JBB21, LWE, and JBB21+LWE were dissolved in 3.D.W at concentrations of 100 mg/mL, 200 mg/mL, and 100+200 mg/mL, respectively, and each of the solutions was orally administered at a dose of 10 mL/kg five times a week for 56 days.\nMeanwhile, subcutaneous fat was also measured.\nIn addition, total fat was measured in the mice administered with JBB21, LWE, or JBB21+LWE."}, "[2]": {"assay": "Anti-obesity effect of betaine and Lycium chinensis leaf extract powder in human body", "assay_type": "in vivo", "conditions": "Betaine 3 g twice/day 43 days", "protocol": "In order to evaluate the anti-obesity effect of Lycium chinensis leaf extract powder and betaine, subjects' weight, body mass index (BMI), body fat, body fat percentage, and muscle mass were measured prior to the administration of betaine and Lycium chinensis leaf extract powder. Betaine and Lycium chinensis leaf extract powder were separately dissolved in water and administered at a single dose of 3 g and 10 g, respectively, twice a day just before breakfast and supper.\nIn consideration of their component properties, the Lycium chinensis leaf extract powder, which comprised various components, was administered for 22 days while 43 days was also allocated for the administration of betaine, a single compound. Preventive and therapeutic effects of the two ingredients on obesity were evaluated in view of changes in weight, BMI, body fat, body fat percentage, and muscle mass."}, "[3]": {"system": "high-fat diet-induced obesity models", "assay": "Weight change in high-fat diet-induced obesity mice", "assay_type": "in vivo, C57BL/6 mice", "conditions": "JBB21 1, LWE 2, JBB21+LWE 1+2 g/kg", "protocol": "as §1, §2, §3, §4\nThe negative control (CD), the obese group (HFD), and the test groups (JBB21, LWE, and JBB21+LWE) were monitored three times a week for weight change and diet intake before and during administration.\nEach of the solutions of JBB21 and LWE was administered at a single dose of 10 mL/kg five times a week for 56 days. […] The LWE (2 g/kg) group decreased in weight by 6.5% by the last day, but no significant changes in weight had been observed during the test period."}, "[4]": {"system": "high-fat diet-induced obesity models", "assay": "Blood leptin, adiponectin and triglyceride levels in high-fat diet-induced obesity mice", "assay_type": "in vivo, C57BL/6 mice", "conditions": "JBB21 1, LWE 2, JBB21+LWE 1+2 g/kg", "protocol": "as §1, §2, §3, §4\nBlood samples taken on 56 days after the administration of a mixture of JBB21 and LWE were placed in heparin-coated tubes and stored on ice, followed by centrifugation at 6,000 rpm for 5 min. The plasma thus obtained was analyzed for levels of blood leptin, a hormone marker for obesity, adiponectin, an anti-obesity hormone, and triglyceride levels, using an automated biochemistry analyzer (AU400, Olympus, Japan). Leptin and adiponectin vary in secretion and function depending on the level of fat accumulated in the body. The preventive and therapeutic effects of the mixture according to the present invention were determined in view of plasma levels of leptin and adiponectin.\nIn this regard, the blood levels of the hormones were measured using Mouse Leptin ELISA kit (Cat. #: MOB00) and Mouse Adiponectin ELISA kit (Cat. #: MRP300), respectively, both commercially available from R&D Systems."}, "[5]": {"system": "high-fat diet-induced obesity models", "assay": "Effect on liver function: liver weight, hepatic triglyceride, GOT, GPT, pathology in high-fat diet-induced obesity mice", "assay_type": "in vivo, C57BL/6 mice", "protocol": "as §1, §2, §3, §4\nMice administered with JBB21, LWE, and JBB21+LWE were euthanized with CO2 gas and underwent laparotomy to excise the livers therefrom. The livers were weighed with a chemical balance, and compared with those from the control and the obese groups. A part of the liver was frozen in liquid nitrogen (LN2) to measure triglyceride and cholesterol contents while the other part was fixed in formalin for pathological analysis.\nThe frozen liver tissues were homogenized by a homogenizer, followed by centrifugation. The supernatant was analyzed for hepatic triglyceride and cholesterol levels using a triglyceride quantification kit (Cat. #: K622-100), and a cholesterol/cholesteryl ester quantification kit (Cat. #: K603-100), respectively, both commercially available from Biovision.\nFor pathological analysis, the liver tissue fixed in formalin was embedded in a paraffin block, and sectioned, and stained with H&E (Hematoxylin & Eosin) before observation under an optical microscope (FIG. 1)."}, "[6]": {"conditions": "HFD mice, oral five times a week for 56 days"}, "[7]": {"conditions": "compared to the obese group (Vehicle Control)"}, "[8]": {"conditions": "L. chinensis leaf extract powder 10 g twice/day 22 days"}, "[9]": {"conditions": "L. chinensis leaf extract powder 10 g twice/day 22 days, baseline"}, "[10]": {"conditions": "HFD mice, JBB21 1, LWE 2, JBB21+LWE 1+2 g/kg"}, "[11]": {"conditions": "vs. Vehicle Control, JBB21 1, LWE 2, JBB21+LWE 1+2 g/kg"}}, "note": "Where “and” joins values, the source holds several entries; their conditions need not be identical. Equal values may be shown once. Marks after values point to notes of the source that are not given here.", "data": [{"compound": "C[N+](C)(C)CC(=O)O", "note": "[JBB21, betaine]", "values": [{"measurement": "Subcutaneous Fat", "setting": "[1]; [6]", "result": "2975.4 ± 530.4", "unit": "mg"}, {"measurement": "Total Fat", "setting": "[1]; [6]", "result": "7030.2 ± 947.9", "unit": "mg"}, {"measurement": "Subcutaneous Fat IR(%)", "setting": "[1]; [7]", "result": 14.2, "unit": "%"}, {"measurement": "Total Fat IR(%)", "setting": "[1]; [7]", "result": "4.3% and 4.2%"}, {"measurement": "BMI, After Administration", "setting": "[2]", "result": 29.3}, {"measurement": "BMI, Reduction", "setting": "[2]", "result": 2.7, "unit": "%"}, {"measurement": "Body Fat, After Administration", "setting": "[2]; [8]", "result": 25.9}, {"measurement": "Body Fat, Change", "setting": "[2]; [8]", "result": -1.7, "unit": "kg"}, {"measurement": "Body Fat, Reduction", "setting": "[2]; [8]", "result": 6.2, "unit": "%"}, {"measurement": "Body Fatness (body fat percentage), After Administration", "setting": "[2]; [8]", "result": 30.7}, {"measurement": "Body Fatness (body fat percentage), Change", "setting": "[2]; [8]", "result": -1, "unit": "%"}, {"measurement": "Body Fatness (body fat percentage), Reduction", "setting": "[2]; [8]", "result": 3.2, "unit": "%"}, {"measurement": "Muscle Mass, After Administration", "setting": "[2]; [8]", "result": 55.5}, {"measurement": "Muscle Mass, Change", "setting": "[2]; [8]", "result": -0.7, "unit": "kg"}, {"measurement": "Muscle Mass, Reduction", "setting": "[2]; [8]", "result": 1.3, "unit": "%"}, {"measurement": "Weight, After Administration", "setting": "[2]; [8]", "result": 84.0, "unit": "kg"}, {"measurement": "Weight, Change", "setting": "[2]; [8]", "result": -3.0, "unit": "kg"}, {"measurement": "Weight, Reduction", "setting": "[2]; [8]", "result": 3.5, "unit": "%"}, {"measurement": "Body Fat, Before Administration", "setting": "[2]; [9]", "result": 27.6}, {"measurement": "Body Fatness (body fat percentage), Before Administration", "setting": "[2]; [9]", "result": 31.7}, {"measurement": "Muscle Mass, Before Administration", "setting": "[2]; [9]", "result": 56.2}, {"measurement": "Weight, Before Administration", "setting": "[2]; [9]", "result": 87.0, "unit": "kg"}, {"measurement": "BMI, Before Administration", "setting": "[2]; baseline", "result": 30.1}, {"measurement": "Weight, day 0 after treatment", "setting": "[3]; day 0, HFD (60% Kcal) mice, oral five times a week, n = 10, in g (unit assumed)", "result": "31.1 ± 1.5"}, {"measurement": "Weight, day 11 after treatment", "setting": "[3]; day 11, HFD (60% Kcal) mice, oral five times a week, n = 10, in g (unit assumed)", "result": "31.9 ± 1.6"}, {"measurement": "Weight IR(%), day 11", "setting": "[3]; day 11, vs. Vehicle Control (obese group)", "result": 5.6, "unit": "%"}, {"measurement": "Weight, day 21 after treatment", "setting": "[3]; day 21, HFD (60% Kcal) mice, oral five times a week, n = 10, in g (unit assumed)", "result": "34.5 ± 1.8"}, {"measurement": "Weight IR(%), day 21", "setting": "[3]; day 21, vs. Vehicle Control (obese group)", "result": 5.8, "unit": "%"}, {"measurement": "Weight, day 30 after treatment", "setting": "[3]; day 30, HFD (60% Kcal) mice, oral five times a week, n = 10, in g (unit assumed)", "result": "36.1 ± 2.3"}, {"measurement": "Weight IR(%), day 30", "setting": "[3]; day 30, vs. Vehicle Control (obese group)", "result": 8.8, "unit": "%"}, {"measurement": "Weight, day 39 after treatment", "setting": "[3]; day 39, HFD (60% Kcal) mice, oral five times a week, n = 10, in g (unit assumed)", "result": "38.4 ± 2.7"}, {"measurement": "Weight IR(%), day 39", "setting": "[3]; day 39, vs. Vehicle Control (obese group)", "result": "9.6* %"}, {"measurement": "Weight, day 51 after treatment", "setting": "[3]; day 51, HFD (60% Kcal) mice, oral five times a week, n = 10, in g (unit assumed)", "result": "40.9 ± 3.1"}, {"measurement": "Weight IR(%), day 51", "setting": "[3]; day 51, vs. Vehicle Control (obese group)", "result": "9.6* %"}, {"measurement": "Weight, day 56 after treatment", "setting": "[3]; day 56, HFD (60% Kcal) mice, oral five times a week, n = 10, in g (unit assumed)", "result": "42.0 ± 3.4"}, {"measurement": "Weight IR(%) / weight loss, day 56 (last day)", "setting": "[3]; day 56, vs. Vehicle Control (obese group)", "result": 9.4, "unit": "%"}, {"measurement": "Leptin IR(%)", "setting": "[4]; [7]", "result": "9.1% and 9.2%"}, {"measurement": "Leptin (blood)", "setting": "[4]; plasma, day 56, HFD mice", "result": 134.3, "unit": "ng/mL"}, {"measurement": "Triglyceride (blood)", "setting": "[4]; plasma, day 56, HFD mice", "result": 74.7, "unit": "mg/dL"}, {"measurement": "Triglyceride (blood) IR(%)", "setting": "[4]; vs. Vehicle Control", "result": 22.3, "unit": "%"}, {"measurement": "Liver Wt", "setting": "[5]; HFD mice, 56 days, JBB21 1, LWE 2, JBB21+LWE 1+2 g/kg", "result": 1511.2, "unit": "mg"}, {"measurement": "liver appearance / hepatic fat deposits (in words)", "setting": "[5]; HFD mice, H&E-stained liver tissue (FIG. 1)", "result": "clean and healthy livers almost free of fat deposits"}, {"measurement": "GOT", "setting": "[5]; [10]", "result": 57.1, "unit": "IU/L"}, {"measurement": "GPT", "setting": "[5]; [10]", "result": 39.8, "unit": "IU/L"}, {"measurement": "GOT IR(%)", "setting": "[5]; compared to the obese group (Vehicle Control), JBB21 1, LWE 2, JBB21+LWE 1+2 g/kg", "result": 59.8, "unit": "%"}, {"measurement": "Hepatic triglyceride", "setting": "[5]; liver homogenate supernatant, HFD mice, JBB21 1, LWE 2, JBB21+LWE 1+2 g/kg", "result": 3.1389, "unit": "nmol/mL"}, {"measurement": "Liver Wt IR(%)", "setting": "[5]; relative to the obese group (Vehicle Control), JBB21 1, LWE 2, JBB21+LWE 1+2 g/kg", "result": 25.4, "unit": "%"}, {"measurement": "GPT IR(%)", "setting": "[5]; [11]", "result": 67.2, "unit": "%"}, {"measurement": "Hepatic triglyceride IR(%)", "setting": "[5]; [11]", "result": 10.8, "unit": "%"}]}]}
